Measurements taken from ChEMBL document CHEMBL4665665, “4-Aryl Pyrrolidines as Novel Orally Efficacious Antimalarial Agents. Part 2: 2-Aryl-N-(4-arylpyrrolidin-3-yl)acetamides” (ACS Med Chem Lett, 2019).
Activity calls are given as the source filed them. No cut-off for these calls is given here.

Experiments:
Plasmodium chabaudi [1] = experiment: Antimalarial activity against Plasmodium chabaudi ASS infected po dosed NIH mouse assessed as inhibition of parasitemia administered oce daily for 4 days starting from 4 hrs post parasite-inoculation and measured at 24 hrs post-last treatment by Peter's 4-day suppressive test; format: functional; settings: 96 h
[2] = Plasma concentration in NIH mouse infected with Plasmodium chabaudi ASS at 30 mg/kg, po qd for 4 days starting from 4 hrs post-parasite inoculation and measured at 24 hrs post-dosing on day 4 by LC/MS analysis; format: ADME, organism-based; settings: dose 30 mg/kg/day, time 4 day
[3] = Plasma concentration in NIH mouse infected with Plasmodium chabaudi ASS at 30 mg/kg, po qd for 4 days starting from 4 hrs post-parasite inoculation and measured at 6 hrs post-dosing on day 4 by LC/MS analysis; format: ADME, organism-based; settings: dose 30 mg/kg/day, time 4 day
[4] = Plasma concentration in NIH mouse infected with Plasmodium chabaudi ASS at 30 mg/kg, po qd for 4 days starting from 4 hrs post-parasite inoculation and measured at 1 hr post-dosing on day 4 by LC/MS analysis; format: ADME, organism-based; settings: dose 30 mg/kg/day, time 4 day
[5] = Plasma concentration in NIH mouse infected with Plasmodium chabaudi ASS at 3 mg/kg, po qd for 4 days starting from 4 hrs post-parasite inoculation and measured at 24 hrs post-dosing on day 4 by LC/MS analysis; format: ADME, organism-based; settings: dose 3 mg/kg/day, time 4 day
[6] = Plasma concentration in NIH mouse infected with Plasmodium chabaudi ASS at 3 mg/kg, po qd for 4 days starting from 4 hrs post-parasite inoculation and measured at 6 hrs post-dosing on day 4 by LC/MS analysis; format: ADME, organism-based; settings: dose 3 mg/kg/day, time 4 day
[7] = Plasma concentration in NIH mouse infected with Plasmodium chabaudi ASS at 3 mg/kg, po qd for 4 days starting from 4 hrs post-parasite inoculation and measured at 1 hr post-dosing on day 4 by LC/MS analysis; format: ADME, organism-based; settings: dose 3 mg/kg/day, time 4 day
[8] = Plasma concentration in NIH mouse infected with Plasmodium chabaudi ASS at 10 mg/kg, po qd for 4 days starting from 4 hrs post-parasite inoculation and measured at 24 hrs post-dosing on day 4 by LC/MS analysis; format: ADME, organism-based; settings: dose 10 mg/kg/day, time 4 day
[9] = Plasma concentration in NIH mouse infected with Plasmodium chabaudi ASS at 10 mg/kg, po qd for 4 days starting from 4 hrs post-parasite inoculation and measured at 6 hrs post-dosing on day 4 by LC/MS analysis; format: ADME, organism-based; settings: dose 10 mg/kg/day, time 4 day
[10] = Plasma concentration in NIH mouse infected with Plasmodium chabaudi ASS at 10 mg/kg, po qd for 4 days starting from 4 hrs post-parasite inoculation and measured at 1 hr post-dosing on day 4 by LC/MS analysis; format: ADME, organism-based; settings: dose 10 mg/kg/day, time 4 day
Plasmodium chabaudi [11] = experiment: Antimalarial activity against Plasmodium chabaudi ASS infected in NIH mouse assessed as inhibition of parasitemia at 30 mg/kg, po qd for 4 days starting from 4 hrs post-parasite inoculation and measured at 24 hrs after last-drug treatment by Peter's 4-day suppressive test relative to control; format: functional; settings: 96 h
HepG2 [12] = experiment: Cytotoxicity against human HepG2 cells assessed as cell viability at 50 uM incubated for 72 hrs by PrestoBlue cell viability reagent based assay; settings: hepg2, 72 h
[13] = Apparent volume of distribution in KM mouse at 2 mg/kg, iv administered as cassette dosing measured up to 24 hrs by LC/MS analysis; format: ADME, organism-based; settings: in vivo, read-out: Vz
[14] = Half life in KM mouse at 2 mg/kg, iv administered as cassette dosing measured up to 24 hrs by LC/MS analysis; format: ADME, organism-based; settings: in vivo
Cytochrome P450 2C19 = Cytochrome P450 2C19 (Homo sapiens, UniProt P33261); experiment: Inhibition of recombinant human CYP2C19 expressed in baculovirus infected insect cells using s-mephenytoin as substrate incubated for 30 mins in presence of NADPH-regenerating system by fluorescence based assay; format: ADME
[15] = Apparent clearance in KM mouse at 2 mg/kg, iv administered as cassette dosing measured up to 24 hrs by LC/MS analysis; format: ADME, organism-based; settings: in vivo
Cytochrome P450 2C9 = Cytochrome P450 2C9 (Homo sapiens, UniProt P11712); experiment: Inhibition of recombinant human CYP2C9 expressed in baculovirus infected insect cells using tolbutamide as substrate incubated for 30 mins in presence of NADPH-regenerating system by fluorescence based assay; format: ADME
Cytochrome P450 2D6 = Cytochrome P450 2D6 (Homo sapiens, UniProt P10635); experiment: Inhibition of recombinant human CYP2D6 expressed in baculovirus infected insect cells using dextromethorphan as substrate incubated for 30 mins in presence of NADPH-regenerating system by fluorescence based assay; format: ADME
Cytochrome P450 1A2 = molecular target: T1, Cytochrome P450 1A2 (Homo sapiens, UniProt P05177); experiment: Inhibition of recombinant human CYP1A2 expressed in baculovirus infected insect cells using phenacetin as substrate incubated for 30 mins in presence of NADPH-regenerating system by fluorescence based assay; format: ADME
T1 sequence (P05177 whole entry): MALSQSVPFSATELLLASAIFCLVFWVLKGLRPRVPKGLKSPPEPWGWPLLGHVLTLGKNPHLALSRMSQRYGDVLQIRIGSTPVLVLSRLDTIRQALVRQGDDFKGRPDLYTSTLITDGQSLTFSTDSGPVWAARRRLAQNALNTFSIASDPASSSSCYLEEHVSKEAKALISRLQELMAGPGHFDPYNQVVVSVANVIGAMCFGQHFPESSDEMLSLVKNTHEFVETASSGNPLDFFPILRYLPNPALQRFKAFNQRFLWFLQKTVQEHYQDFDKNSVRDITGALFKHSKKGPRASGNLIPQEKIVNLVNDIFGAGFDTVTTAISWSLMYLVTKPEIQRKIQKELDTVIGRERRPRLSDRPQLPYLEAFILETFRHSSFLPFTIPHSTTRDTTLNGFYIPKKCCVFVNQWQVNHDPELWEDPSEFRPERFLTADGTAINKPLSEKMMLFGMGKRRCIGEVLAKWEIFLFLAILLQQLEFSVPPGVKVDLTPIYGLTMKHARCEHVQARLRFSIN

Cytochrome P450 3A4 = Cytochrome P450 3A4 (Homo sapiens, UniProt P08684); experiment: Inhibition of recombinant human CYP3A4 expressed in baculovirus infected insect cells using midazolam as substrate incubated for 30 mins in presence of NADPH-regenerating system by fluorescence based assay; format: ADME
[16] = molecular target: Beta-secretase 1 (Homo sapiens) (UniProt P56817); experiment: Inhibition of recombinant human BACE1 using Mca-SEVNLDAEFRK(Dnp)RR-NH2 fluorogenic peptide as substrate incubated for 60 mis by fluorescence based assay; settings: time 60.0 min
Plasmodium falciparum [17] = experiment: Inhibition of Plasmodium falciparum plasmepsin 4 using PM-2 peptide substrate incubated for 60 mis by fluorescence based assay; settings: time 60.0 min
[18] = molecular target: Plasmepsin II (Plasmodium falciparum) (UniProt P46925); experiment: Inhibition of Plasmodium falciparum plasmepsin 2 using PM-2 peptide substrate incubated for 60 mis by fluorescence based assay; settings: time 60.0 min
Plasmodium falciparum [19] = experiment: Antimalarial activity against CQ-sensitive Plasmodium falciparum 3D7 incubated for 72 hrs by SYBR Green-1 dye based fluorescence assay; format: functional, organism-based; settings: Plasmodium falciparum, 3D7, 72 h
Plasmodium falciparum [20] = experiment: Antimalarial activity against multidrug resistant Plasmodium falciparum Dd2 incubated for 72 hrs by SYBR Green-1 dye based fluorescence assay; format: functional, organism-based; settings: Dd2, 72 h
Plasmodium chabaudi [21] = experiment: Antimalarial activity against Plasmodium chabaudi ASS infected in NIH mouse assessed as inhibition of parasitemia at 10 mg/kg, po qd for 4 days starting from 4 hrs post-parasite inoculation and measured at 24 hrs after last-drug treatment by Peter's 4-day suppressive test relative to control; format: functional; settings: 96 h
Plasmodium chabaudi [22] = experiment: Antimalarial activity against Plasmodium chabaudi ASS infected in NIH mouse assessed as inhibition of parasitemia at 3 mg/kg, po qd for 4 days starting from 4 hrs post-parasite inoculation and measured at 24 hrs after last-drug treatment by Peter's 4-day suppressive test relative to control; format: functional; settings: 96 h
HepG2 [23] = experiment: Cytotoxicity against human HepG2 cells assessed as cell viability at 5 uM incubated for 72 hrs by PrestoBlue cell viability reagent based assay; settings: hepg2, 72 h

Sequence of Cytochrome P450 2C9 (P11712 whole entry): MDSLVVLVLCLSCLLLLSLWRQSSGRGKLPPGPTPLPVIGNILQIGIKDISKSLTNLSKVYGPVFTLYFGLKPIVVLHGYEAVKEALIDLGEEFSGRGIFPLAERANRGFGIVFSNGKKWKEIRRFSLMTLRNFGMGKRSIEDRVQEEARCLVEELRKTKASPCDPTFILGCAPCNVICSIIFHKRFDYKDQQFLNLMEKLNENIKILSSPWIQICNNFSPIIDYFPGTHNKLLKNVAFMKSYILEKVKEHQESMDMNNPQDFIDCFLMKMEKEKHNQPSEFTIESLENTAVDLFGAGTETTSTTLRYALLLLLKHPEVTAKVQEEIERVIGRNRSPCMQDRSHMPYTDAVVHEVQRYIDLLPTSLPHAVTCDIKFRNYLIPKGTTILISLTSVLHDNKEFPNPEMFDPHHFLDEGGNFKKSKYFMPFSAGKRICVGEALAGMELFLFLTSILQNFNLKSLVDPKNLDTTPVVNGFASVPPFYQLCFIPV
Sequence of Plasmepsin II (Plasmodium falciparum) (P46925 125-453 limits assumed): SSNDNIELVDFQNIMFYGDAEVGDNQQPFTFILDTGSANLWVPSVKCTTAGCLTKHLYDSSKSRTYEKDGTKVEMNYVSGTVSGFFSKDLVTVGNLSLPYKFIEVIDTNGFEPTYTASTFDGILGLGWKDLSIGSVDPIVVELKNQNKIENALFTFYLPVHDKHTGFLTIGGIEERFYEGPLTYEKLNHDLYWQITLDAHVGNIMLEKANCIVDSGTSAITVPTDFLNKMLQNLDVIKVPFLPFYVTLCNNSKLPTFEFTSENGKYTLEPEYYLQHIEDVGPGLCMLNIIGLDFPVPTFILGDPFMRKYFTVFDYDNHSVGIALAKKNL
Sequence of Cytochrome P450 2C19 (P33261 whole entry): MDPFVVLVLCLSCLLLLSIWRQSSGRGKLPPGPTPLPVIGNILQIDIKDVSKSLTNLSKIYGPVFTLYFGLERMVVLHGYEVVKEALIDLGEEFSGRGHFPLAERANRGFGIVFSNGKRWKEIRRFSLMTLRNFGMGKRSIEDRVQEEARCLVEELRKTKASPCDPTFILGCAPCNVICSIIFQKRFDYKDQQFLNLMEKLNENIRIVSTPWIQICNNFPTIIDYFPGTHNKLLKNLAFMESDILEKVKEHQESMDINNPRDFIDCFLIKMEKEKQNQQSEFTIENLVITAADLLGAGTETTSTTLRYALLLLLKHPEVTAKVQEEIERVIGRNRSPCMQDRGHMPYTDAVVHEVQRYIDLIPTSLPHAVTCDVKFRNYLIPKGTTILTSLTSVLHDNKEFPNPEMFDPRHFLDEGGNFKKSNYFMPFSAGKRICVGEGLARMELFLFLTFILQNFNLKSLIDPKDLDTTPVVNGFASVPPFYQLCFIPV
Sequence of Cytochrome P450 2D6 (P10635 whole entry): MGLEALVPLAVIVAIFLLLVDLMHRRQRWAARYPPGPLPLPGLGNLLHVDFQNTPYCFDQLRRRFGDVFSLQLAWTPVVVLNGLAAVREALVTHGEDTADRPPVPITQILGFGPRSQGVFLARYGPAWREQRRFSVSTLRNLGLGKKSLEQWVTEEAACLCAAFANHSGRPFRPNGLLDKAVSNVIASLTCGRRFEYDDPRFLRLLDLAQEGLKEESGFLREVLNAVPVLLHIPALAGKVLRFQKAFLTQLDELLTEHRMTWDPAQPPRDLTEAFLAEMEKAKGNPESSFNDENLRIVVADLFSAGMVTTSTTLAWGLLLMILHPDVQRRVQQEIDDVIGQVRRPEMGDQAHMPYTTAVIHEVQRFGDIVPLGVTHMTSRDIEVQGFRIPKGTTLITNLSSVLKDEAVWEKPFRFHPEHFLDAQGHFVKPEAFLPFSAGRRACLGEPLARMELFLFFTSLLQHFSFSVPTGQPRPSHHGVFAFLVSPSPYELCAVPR
Sequence of Beta-secretase 1 (Homo sapiens) (P56817 whole entry): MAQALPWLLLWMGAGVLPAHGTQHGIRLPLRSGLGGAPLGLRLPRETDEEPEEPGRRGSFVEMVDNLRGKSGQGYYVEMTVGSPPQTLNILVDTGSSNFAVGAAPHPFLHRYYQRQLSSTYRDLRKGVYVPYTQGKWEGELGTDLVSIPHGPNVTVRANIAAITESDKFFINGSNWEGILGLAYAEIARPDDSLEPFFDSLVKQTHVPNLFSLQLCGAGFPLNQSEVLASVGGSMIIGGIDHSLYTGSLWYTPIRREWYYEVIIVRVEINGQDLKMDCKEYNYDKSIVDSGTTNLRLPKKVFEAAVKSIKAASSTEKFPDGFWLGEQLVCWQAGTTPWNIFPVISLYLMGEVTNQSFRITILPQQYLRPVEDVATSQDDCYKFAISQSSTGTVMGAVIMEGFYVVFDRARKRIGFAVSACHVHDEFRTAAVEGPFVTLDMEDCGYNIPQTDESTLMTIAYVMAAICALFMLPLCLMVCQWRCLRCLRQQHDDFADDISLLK
Sequence of Cytochrome P450 3A4 (P08684 whole entry): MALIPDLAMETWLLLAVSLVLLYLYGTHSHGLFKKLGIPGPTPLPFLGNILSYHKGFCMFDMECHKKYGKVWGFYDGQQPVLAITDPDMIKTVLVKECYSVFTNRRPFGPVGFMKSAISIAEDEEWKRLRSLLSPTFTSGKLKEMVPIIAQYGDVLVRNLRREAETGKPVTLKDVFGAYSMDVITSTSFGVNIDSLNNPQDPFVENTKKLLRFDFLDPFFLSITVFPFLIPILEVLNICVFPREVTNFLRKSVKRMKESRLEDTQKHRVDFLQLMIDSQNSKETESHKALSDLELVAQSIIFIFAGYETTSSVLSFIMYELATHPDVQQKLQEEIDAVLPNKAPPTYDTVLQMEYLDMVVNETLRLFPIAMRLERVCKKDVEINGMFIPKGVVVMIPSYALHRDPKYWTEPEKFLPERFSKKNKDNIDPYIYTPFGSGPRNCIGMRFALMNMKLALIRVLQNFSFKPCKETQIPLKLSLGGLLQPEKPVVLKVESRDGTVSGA

CN(C)c1ccc(CC(=O)N[C@@H]2CNC[C@H]2c2ccc(C(C)(F)F)cc2)cc1
ED90 (Plasmodium chabaudi [1]): < 10 mg/kg/day
ED99 (Plasmodium chabaudi [1]): 30 mg/kg/day
concentration at 96 h [2]: 28.5 nM
concentration at 96 h [3]: 1150 nM
concentration at 96 h [4]: 1310 nM
concentration at 96 h [5]: 6.6 nM
concentration at 96 h [6]: 34.1 nM
concentration at 96 h [7]: 114 nM
concentration at 96 h [8]: 1.7 nM
concentration at 96 h [9]: 48.9 nM
concentration at 96 h [10]: 389 nM
inhibition in vivo at 30 mg/kg/day (Plasmodium chabaudi [11]): 99.9%
Activity (HepG2 [12]): Non-Toxic
Vd [13]: 2.1 L/kg
half-life [14]: 2.7 h
IC50 (Cytochrome P450 2C19): 49.7 µM
clearance [15]: 13.8 mL/min/kg
IC50 (Cytochrome P450 2C9): > 100 µM
IC50 (Cytochrome P450 2D6): 40.6 µM
IC50 (Cytochrome P450 1A2): > 100 µM
IC50 (Cytochrome P450 3A4): 2.5 µM
inhibition [16]: inactive
inhibition (Plasmodium falciparum [17]): inactive
inhibition [18]: inactive
IC50 (Plasmodium falciparum [19]): 0.051 µM
IC50 (Plasmodium falciparum [20]): 0.053 µM
inhibition in vivo at 10 mg/kg/day (Plasmodium chabaudi [21]): 94.1%
inhibition in vivo at 3 mg/kg/day (Plasmodium chabaudi [22]): 34%
Activity (HepG2 [23]): Non-Toxic
